Data published in patent publication US7595320B2, “Hydrazinocarbonyl-thieno[2,3-C]pyrazoles, process for preparing them, compositions containing them and use thereof” (Aventis Pharma S.A., priority 2005, dated 2009).

Columns and labels:
Assay type in all cases: biochemical
[1] = target: T1, Aurora1 (Homo sapiens, UniProt Q96GD4); experiment: Aurora1 enzymatic test, NuMA phosphorylation with [33P]ATP, Flashplate; settings: Aurora-B/INCENP-C3 recombinant complex, 1 μM ATP
T1 construct: His tag (N); made in house
Protocol: (§1) The inhibitory effect of compounds with respect to the kinases Aurora1 and Aurora2 is determined by means of an enzymatic test using radioactivity detection.
(§2) The kinase activity of Aurora1 and Aurora2 is evaluated via the phosphorylation of the substrate Numa-histidine in the presence of radiolabelled ATP ([^33P]ATP) using 96-well Flashplate plates in which the nickel chelate is bound to the surface of the microplate. The amount of ^33P phosphate incorporated into the NuMA substrate is proportional to the activity of the enzyme Aurora1 or Aurora2.
Aurora1: Aurora-B/INCENP-C3 recombinant complex, purified to about 50%, the N-terminal end of Aurora-B of which has been labeled with histidine.
(§3) NuMA (nuclear protein that combines with the mitotic apparatus): 424-amino acid fragment, expressed in E. coli, the N-terminal end of which has been labeled with histidine, and used as substrate for the two Aurora enzymes.
(§4) The microplates used are 96-well Flash-Plate plates, nickel chelate (Perkin-Elmer, model SMP107).
(§5) The products to be evaluated are incubated in a reaction volume of 100 μL per well, in the presence of 10 nM of Aurora1 or Aurora2, 500 nM of NuMA substrate in a buffer composed of 50 mM Tris/HCl (pH 7.5), 50 mM NaCl, 5 mM MgCl2 (Aurora-B) or 10 mM MgCl2 (Aurora-A) and 1 mM DTT, at 37° C.
(§6) 80 μL of enzyme/substrate incubation buffer are distributed in each well, followed by 10 μL of product to be evaluated, at variable concentrations. The reaction is initiated by adding 1 μM final of ATP containing 0.2 μCi of [^33P]ATP (10 μL). After incubating for 30 minutes, the reaction is quenched by simple removal of the reaction buffer and each well is washed twice with 300 μl of Tris/HCl buffer. The radioactivity is then measured in each well using a Packard, Top-Count model scintillation machine.
(§7) The control enzymatic activity of Aurora is expressed by the number of counts per minute obtained over 30 minutes after subtracting the background noise (reaction mixture containing no enzyme). The evaluation of the various test products is expressed as a percentage of inhibition of the Aurora activity relative to the control.

[2] = target: T2, Tie2 (Homo sapiens, UniProt Q02763); experiment: Tie2 kinase test, phosphorylation of PLC with GST-Tie2; settings: GST-Tie2 intracellular domain 776-1124
T2 construct: amino acids of the intracellular domain 776-1124; made in house; host or cells: baculovirus expression (pFastBacGT vector)
Protocol: The coding sequence of human Tie2 corresponding to the amino acids of the intracellular domain 776-1124 was generated by PCR using the cDNA isolated from a human placenta as a model. This sequence was introduced into a pFastBacGT baculovirus expression vector in the form of a GST fusion protein.
The inhibitory effect of the molecules is determined in a test of phosphorylation of PLC with Tie2 in the presence of GST-Tie2 purified to about 80% homogeneity. The substrate is composed of the SH2-SH3 fragments of PLC expressed in the form of a GST fusion protein.
The kinase activity of Tie2 is measured in a MOPS 20 mM pH 7.2 buffer, containing 10 mM MgCl2, 10 mM MnCl2, 1 mM DTT, 10 mM of glycerophosphate. In a 96-well FlashPlate plate maintained on ice, a reaction mixture is deposited, composed of 70 μL of kinase buffer containing 100 ng of enzyme GST-Tie2 per well. Next, 10 μL of the test molecule diluted in DMSO to a maximum concentration of 10% are added. For a given concentration, each measurement is performed four times. The reaction is initiated by adding 20 μL of solution containing 2 μg of GST-PLC, 2 μm of cold ATP and 1 μCi of ^33P[ATP]. After incubation for one hour at 37° C., the reaction is stopped by adding 1 volume (100 μl) of 200 mM EDTA. After removal of the incubation buffer, the wells are washed three times with 300 μL of PBS. The radioactivity is measured on a MicroBeta1450 Wallac.
The inhibition of the Tie2 activity is calculated and expressed as a percentage of inhibition relative to the control activity determined in the absence of compound.

[3] = target: T3, Aurora2 (Homo sapiens, UniProt O14965); experiment: Aurora2 enzymatic test, NuMA phosphorylation with [33P]ATP, Flashplate; settings: whole recombinant protein, 1 μM ATP
T3 construct: Aurora2: whole recombinant protein comprising an N-terminal histidine tail; His tag (N); made in house; host or cells: E. coli
T3 sequence (O14965 1-403): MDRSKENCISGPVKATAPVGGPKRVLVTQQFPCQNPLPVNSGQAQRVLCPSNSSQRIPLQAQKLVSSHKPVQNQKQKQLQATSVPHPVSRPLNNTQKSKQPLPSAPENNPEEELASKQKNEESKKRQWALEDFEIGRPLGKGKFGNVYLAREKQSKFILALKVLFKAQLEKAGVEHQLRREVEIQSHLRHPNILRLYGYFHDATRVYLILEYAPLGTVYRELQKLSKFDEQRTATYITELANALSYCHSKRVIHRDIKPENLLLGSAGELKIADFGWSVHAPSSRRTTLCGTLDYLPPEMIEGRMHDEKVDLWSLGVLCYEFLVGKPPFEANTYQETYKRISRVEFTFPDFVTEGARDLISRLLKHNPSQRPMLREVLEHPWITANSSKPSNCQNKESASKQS
Protocol: as §1, §2
Aurora2: whole recombinant protein comprising an N-terminal histidine tail, was expressed in E. coli and purified to more than 82%.
as §3, §4, §5, §6, §7

[4] = target: T4, CDK2/cycline E (Homo sapiens, UniProt P24941); experiment: CDK2/cyclineE Flashplate test in 96-well format; settings: CDK2/cycline E complex, 1 μM ATP
T4 construct: made in house; host or cells: Sf21 insect cells (baculovirus coinfection)
Protocol: Two recombinant baculoviruses bearing the human sequences coding, respectively, for CDK2 and cyclineE (the latter bearing a C-terminal hexahistidine tag) are used to coinfect Sf21 insect cells. Two to three days after the start of coinfection, the cells are harvested by centrifugation and then stored at −40° C. until the time of use.
A format in streptavidin-coated 96-well plates is used to test the activity of the compounds on the kinase activity of CDK2/cycline E.
To perform this test, the biotinylated peptide substrate, a fragment of the protein pRb (biotinyl-[…]-OH), is dissolved at a concentration of 1 mM in kinase buffer (HEPES/NaOH 50 mM, NaCl 1 mM, MgCl2 5 mM, pH 7.5) in order to constitute a stock solution stored at −20° C. in the form of 110 μL aliquots. On the day of the experiment, an aliquot of this solution is thawed and diluted in kinase buffer containing 1 mM of dithiothreitol, added to the buffer extemporaneously, in order to obtain a concentration of 14.3 μM. 70 μL of this solution are added to each well of the Flashplate in order to obtain a final substrate concentration of 10 μM during the enzymatic reaction performed in a final volume of the reaction medium of 100 μL (cf. below).
Intermediate dilutions of inhibitors (products of the invention) at various concentrations are prepared in DMSO from stock solutions at 10 mM in separate tubes. Dilutions at 1000 μM, 333.3 μM, 111.1 μM, 37.03 μM, 12.35 μM, 4.11 μM and 1.37 μM are thus prepared. One μL of each of these solutions (or 1 μL of DMSO for the controls) is transferred into the wells of the test plate.
19 μl of a solution of a mixture of adenosine triphosphate (ATP) and of ATPγ^33P in kinase buffer at a total concentration of 5.26 μM of ATP and 52.6 μCi/ml of ^33P are then added to each well. The enzymatic reaction is initiated by adding 10 μL per well of a 200 nM solution of CDK2/cycline E in kinase buffer containing 1 mM of dithiothreitol (or 10 μL of kinase buffer containing 1 mM of dithiothreitol for the reaction blanks).
After addition of each of the reagents, the final volume of each well is 100 μL, the final concentration of substrate is 10 μM, the final inhibitor concentrations are 10 μM, 3.33 μM, 1.11 μM, 0.37 μM, 0.123 μM, 0.041 μM and 0.014 μM (according to the concentration of the intermediate dilution), the final ATP concentration is 1 μM, the final amount of ^33P is 1 μCi/well, and the final concentration of CDK2/cycline E complex is 20 nM.
After addition of all of the reagents, the test plate is incubated at 30° C. with orbital shaking at 650 rpm.
When the incubation is complete, the plate is washed three times with 300 μL per well of PBS (phosphate-buffered saline, pH=7.4, without calcium or magnesium, reference 10010-015, Gibco BRL). The incorporation of ^33P to the peptide is quantified by scintillation counting with a Packard Topcount.NXT machine.

T2 sequence (Q02763 776-1124): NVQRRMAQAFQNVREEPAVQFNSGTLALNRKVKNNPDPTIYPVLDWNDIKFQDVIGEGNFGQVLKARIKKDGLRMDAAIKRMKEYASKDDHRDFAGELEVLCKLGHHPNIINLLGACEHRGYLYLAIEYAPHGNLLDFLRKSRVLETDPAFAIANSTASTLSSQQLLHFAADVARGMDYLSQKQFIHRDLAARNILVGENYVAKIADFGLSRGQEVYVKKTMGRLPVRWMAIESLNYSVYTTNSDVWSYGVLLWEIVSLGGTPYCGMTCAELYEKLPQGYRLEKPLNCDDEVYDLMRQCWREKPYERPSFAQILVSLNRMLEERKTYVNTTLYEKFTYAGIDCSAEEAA
T1 sequence (Q96GD4 whole entry, species assumed): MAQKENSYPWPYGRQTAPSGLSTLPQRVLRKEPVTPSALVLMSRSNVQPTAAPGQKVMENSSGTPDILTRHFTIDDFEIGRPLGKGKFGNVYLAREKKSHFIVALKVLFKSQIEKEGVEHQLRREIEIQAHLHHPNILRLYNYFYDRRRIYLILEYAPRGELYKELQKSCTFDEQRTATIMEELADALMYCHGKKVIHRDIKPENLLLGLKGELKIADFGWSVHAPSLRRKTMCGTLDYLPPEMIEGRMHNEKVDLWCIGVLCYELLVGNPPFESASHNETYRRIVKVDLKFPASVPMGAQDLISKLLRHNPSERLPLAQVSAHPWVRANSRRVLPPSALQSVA
T1 sequence (Q9NQS7 835-903 partner limits assumed, species assumed): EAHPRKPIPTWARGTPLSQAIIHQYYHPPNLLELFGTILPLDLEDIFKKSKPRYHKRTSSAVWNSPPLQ

Row | SMILES | IC50 [1] [µM] | IC50 [2] [µM] | IC50 [3] [µM] | IC50 [4] [µM]
1 | COc1ccc(C(=O)Nc2n[nH]c3sc(C(=O)NNc4ccccc4)cc23)cc1 [Example 1] | 0.008 | 0.117 | 0.008 | 0.177
2 | COc1ccc(C(=O)Nc2n[nH]c3sc(C(=O)NN(C)c4ccccc4)cc23)cc1 [Example 2] | 0.009 | 0.092 | 0.009 | 0.097
3 | COc1ccc(C(=O)Nc2n[nH]c3sc(C(=O)NNC4CCCCC4)cc23)cc1 [Example 3, N-[5-(N′-cyclohexylhydrazinocarbonyl)-1H-thieno-[2,3-c]pyrazol-3-yl]-4-methoxybenzamide] | 0.031 | 0.192 | 0.045 | 0.471
4 | COc1ccc(C(=O)Nc2n[nH]c3sc(C(=O)NN(Cc4ccccc4)c4ccccc4)cc23)cc1 [Example 4, N-[5-(N′-benzyl-N′-phenylhydrazinocarbonyl)-1H-thieno[2,3-c]pyrazol-3-yl]-4-methoxybenzamide] | 0.006 | 0.115 | 0.028 | 0.508
5 | CCc1ccccc1NNC(=O)c1cc2c(NC(=O)c3ccc(OC)cc3)n[nH]c2s1 [Example 5, N-{5-[N′-(2-ethylphenyl)hydrazinocarbonyl]-1H-thieno[2,3-c]pyrazol-3-yl}-4-methoxybenzamide] | 0.033 | 0.075 | 0.028 | 0.664
6 | COc1ccc(C(=O)Nc2n[nH]c3sc(C(=O)NNc4ccccc4F)cc23)cc1 [Example 6, N-{5-[N′-(2-fluorophenyl)hydrazinocarbonyl]-1H-thieno[2,3-c]pyrazol-3-yl}-4-methoxybenzamide] | 0.014 | 0.23 | 0.02 | 0.579
7 | COc1ccc(C(=O)Nc2n[nH]c3sc(C(=O)NNc4ccccc4C)cc23)cc1 [Example 7, 4-methoxy-N-[5-(N′-o-tolylhydrazinocarbonyl)-1H-thieno[2,3-c]pyrazol-3-yl]benzamide] | 0.016 | 0.186 | 0.017 | 0.428
8 | CN1CCN(Cc2ccc(C(=O)Nc3n[nH]c4sc(C(=O)NN(C)c5ccccc5)cc34)cc2)CC1 [Example 10, N-[5-(N′-methyl-N′-phenylhydrazinocarbonyl)-1H-thieno[2,3-c]pyrazol-3-yl]-4-(4-methylpiperazin-1-ylmethyl)benzamide] | 0.102 | 0.367 | 0.046 | 0.092
9 | CC1CN(Cc2ccc(C(=O)Nc3n[nH]c4sc(C(=O)NN(C)c5ccccc5)cc34)cc2)CC(C)N1 (stereo not shown) [Example 11a, 4-(3,5-dimethylpiperazin-1-ylmethyl)-N-[5-(N′-methyl-N′-phenylhydrazinocarbonyl)-1H-thieno[2,3-c]pyrazol-3-yl]benzamide] | 0.178 | 0.52 | 0.031 | 0.156
10 | CC1CN(Cc2ccc(C(=O)Nc3n[nH]c4sc(C(=O)NN(C)c5ccc(Cl)cc5)cc34)cc2)CC(C)N1 (stereo not shown) [Example 11b, 4-(3,5-dimethylpiperazin-1-ylmethyl)-N-[5-(N′-(4-chlorophenyl)-N′-methylhydrazinocarbonyl)-1H-thieno[2,3-c]pyrazol-3-yl]-benzamide] | 0.216 | 0.704 | 0.073 | 0.077
11 | CCN(NC(=O)c1cc2c(NC(=O)c3ccc(N4CCN(C)CC4)cc3)n[nH]c2s1)c1ccccc1 [Example 33, N-[5-(N′-ethyl-N′-phenylhydrazinocarbonyl)-1H-thieno[2,3-c]pyrazol-3-yl]-4-(4-methylpiperazin-1-yl)benzamide] | 0.013 | 0.008 |  | 0.1
12 | CN1CCCN(c2ccc(C(=O)Nc3n[nH]c4sc(C(=O)NN(C)c5ccccc5)cc34)cc2)CC1 [Example 47, 4-(4-methyl[1,4]diazepan-1-yl)-N-[5-(N′-methyl-N′-phenylhydrazinocarbonyl)-1H-thieno[2,3-c]pyrazol-3-yl]benzamide] | 0.008 | 0.075 |  | 0.289
